The supplement of paper PMC11208160

Assay: recombinant UMI read abundance after kanamycin selection (control-corrected) (log10(CPM+1)); higher = more efficient recombination; extreme values may be limits of the assay; sequences stand for … in AGTGCAGAGAAAATCGGCCAGTTTTCTCTGCCTGCAGTCCGCATGCCGTGGGACCCCTTGGGTTCTAACCTGTTGCCTAGATTTATGCAGCGGACTGCCTTTCTCCCAAAGTGATAAACCGG…AGGTTGGTTTCACT; site = the 11-nt donor
Procedure, shortened: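 Sequencing read counts were converted to CPM, averaged over two replicates and scaled by control-derived factors. Results are given as log10(CPM+1). The reads covered the donor–target junction of recombinant UMIs from a pooled Escherichia coli screen of donor and donor-binding-loop pairs for the IS621 bridge recombinase.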
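Also: IS621 bridge recombinase in Escherichia coli cells against a fixed T5 target plasmid.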

| Sequence | recombinant UMI read abundance (log10) |
| --- | --- |
| GTCAACACATGGACCGGTTTTCCCGGTAATCCGTATTTGTC (site GTCAACACTGA) | 2.35 |
| GTCAGATCATGGACCGGTTTTCCCGGTAATCCGTATTTGCG (site GTCAGATCTCG) | 1.77 |
| GTCAGTGCATGGACCGGTTTTCCCGGTAATCCGTATTTGCA (site GTCAGTGCTTG) | 2.49 |
| GTCCAGGCATGGACCGGTTTTCCCGGTAATCCGTATTTGTA (site GTCCAGGCTTA) | 0.928 |
| GTCCTATCATGGACCGGTTTTCCCGGTAATCCGTATTTGGA (site GTCCTATCTTC) | 1.41 |
| GTCCTTACATGGACCGGTTTTCCCGGTAATCCGTATTTGAG (site GTCCTTACTCT) | 0.376 |
| GTCGAACCATGGACCGGTTTTCCCGGTAATCCGTATTTGAC (site GTCGAACCTGT) | 0 |
| GTCGAATCATGGACCGGTTTTCCCGGTAATCCGTATTTGGG (site GTCGAATCTCC) | 0.914 |
| GTCGAGTCATGGACCGGTTTTCCCGGTAATCCGTATTTGTT (site GTCGAGTCTAA) | 2.79 |
| GTCGGGACATGGACCGGTTTTCCCGGTAATCCGTATTTGGG (site GTCGGGACTCC) | 0.0114 |
| GTCGGGGCATGGACCGGTTTTCCCGGTAATCCGTATTTGGC (site GTCGGGGCTGC) | 1.22 |
| GTCGTAGCATGGACCGGTTTTCCCGGTAATCCGTATTTGCC (site GTCGTAGCTGG) | 2.67 |
| GTCGTTGCATGGACCGGTTTTCCCGGTAATCCGTATTTGAA (site GTCGTTGCTTT) | 2.14 |
| GTCTATACATGGACCGGTTTTCCCGGTAATCCGTATTTGAC (site ATCTATACTGT) | 0.841 |
| GTCTATACATGGACCGGTTTTCCCGGTAATCCGTATTTGAC (site CTCTATACTGT) | 0.0424 |
| GTCTATACATGGACCGGTTTTCCCGGTAATCCGTATTTGAC (site GTCTATACTGT) | 2.33 |
| GTCTATACATGGACCGGTTTTCCCGGTAATCCGTATTTGAC (site TTCTATACTGT) | 1.01 |
| GTCTATTCATGGACCGGTTTTCCCGGTAATCCGTATTTGAC (site GTCTATTCTGT) | 2.09 |
| GTCTGATCATGGACCGGTTTTCCCGGTAATCCGTATTTGCG (site GTCTGATCTCG) | 2.17 |
| GTCTGATCATGGACCGGTTTTCCCGGTAATCCGTATTTGGG (site GTCTGATCTCC) | 0.011 |
| GTCTGCACATGGACCGGTTTTCCCGGTAATCCGTATTTGTA (site GTATGCACTTA) | 0.0171 |
| GTCTGCACATGGACCGGTTTTCCCGGTAATCCGTATTTGTA (site GTCTGCACTTA) | 1.44 |
| GTCTGCACATGGACCGGTTTTCCCGGTAATCCGTATTTGTA (site GTGTGCACTTA) | 0.0326 |
| GTCTGCACATGGACCGGTTTTCCCGGTAATCCGTATTTGTA (site GTTTGCACTTA) | 0.0829 |
| GTGAGAACATGGACCGGTTTTCCCGGTAATCCGTATTTGGC (site GTAAGAACTGC) | 2.2 |

| Sequence | recombinant UMI read abundance (log10) |
| --- | --- |
| GTGAGAACATGGACCGGTTTTCCCGGTAATCCGTATTTGGC (site GTCAGAACTGC) | 0 |
| GTGAGAACATGGACCGGTTTTCCCGGTAATCCGTATTTGGC (site GTGAGAACTGC) | 1.49 |
| GTGAGAACATGGACCGGTTTTCCCGGTAATCCGTATTTGGC (site GTTAGAACTGC) | 0 |
| GTGAGGTCATGGACCGGTTTTCCCGGTAATCCGTATTTGCT (site GTGAGGTCTAG) | 3.11 |
| GTGATTCCATGGACCGGTTTTCCCGGTAATCCGTATTTGCA (site GTGATTCCTTG) | 1.09 |
| GTGATTCCATGGACCGGTTTTCCCGGTAATCCGTATTTGGA (site GTGATTCCTTC) | 0.421 |
| GTGATTCCATGGACCGGTTTTCCCGGTAATCCGTATTTGGT (site GTGATTCCTAC) | 0.318 |
| GTGCCTACATGGACCGGTTTTCCCGGTAATCCGTATTTGGC (site GTGCCTACTGC) | 1.12 |
| GTGCTGACATGGACCGGTTTTCCCGGTAATCCGTATTTGTT (site GTGCTGACTAA) | 0.314 |
| GTGCTTACATGGACCGGTTTTCCCGGTAATCCGTATTTGTA (site GTGCTTACTTA) | 0.318 |
| GTGGAGGCATGGACCGGTTTTCCCGGTAATCCGTATTTGCG (site GTGGAGGCTCA) | 1.56 |
| GTGGAGGCATGGACCGGTTTTCCCGGTAATCCGTATTTGCG (site GTGGAGGCTCC) | 0.392 |
| GTGGAGGCATGGACCGGTTTTCCCGGTAATCCGTATTTGCG (site GTGGAGGCTCG) | 2.28 |
| GTGGAGGCATGGACCGGTTTTCCCGGTAATCCGTATTTGCG (site GTGGAGGCTCT) | 0.716 |
| GTGGAGGCATGGACCGGTTTTCCCGGTAATCCGTATTTGTC (site GTGGAGGCTAA) | 0.657 |
| GTGGAGGCATGGACCGGTTTTCCCGGTAATCCGTATTTGTC (site GTGGAGGCTCA) | 0.549 |
| GTGGAGGCATGGACCGGTTTTCCCGGTAATCCGTATTTGTC (site GTGGAGGCTGA) | 2.67 |
| GTGGAGGCATGGACCGGTTTTCCCGGTAATCCGTATTTGTC (site GTGGAGGCTTA) | 1.64 |
| GTGGAGGCATGGACCGGTTTTCCCGGTAATCCGTATTTGTG (site ATGGAGGCTCA) | 1.53 |
| GTGGAGGCATGGACCGGTTTTCCCGGTAATCCGTATTTGTG (site CTGGAGGCTCA) | 0.921 |
| GTGGAGGCATGGACCGGTTTTCCCGGTAATCCGTATTTGTG (site GAGGAGGCTCA) | 0.602 |
| GTGGAGGCATGGACCGGTTTTCCCGGTAATCCGTATTTGTG (site GCGGAGGCTCA) | 0.6 |
| GTGGAGGCATGGACCGGTTTTCCCGGTAATCCGTATTTGTG (site GGGGAGGCTCA) | 0 |
| GTGGAGGCATGGACCGGTTTTCCCGGTAATCCGTATTTGTG (site GTAGAGGCTCA) | 1.94 |
| GTGGAGGCATGGACCGGTTTTCCCGGTAATCCGTATTTGTG (site GTCGAGGCTCA) | 0.00904 |

| Sequence | recombinant UMI read abundance (log10) |
| --- | --- |
| GTGGAGGCATGGACCGGTTTTCCCGGTAATCCGTATTTGTG (site GTGAAGGCTCA) | 1.1 |
| GTGGAGGCATGGACCGGTTTTCCCGGTAATCCGTATTTGTG (site GTGCAGGCTCA) | 0.25 |
| GTGGAGGCATGGACCGGTTTTCCCGGTAATCCGTATTTGTG (site GTGGAAGCTCA) | 2.56 |
| GTGGAGGCATGGACCGGTTTTCCCGGTAATCCGTATTTGTG (site GTGGACGCTCA) | 1.02 |
| GTGGAGGCATGGACCGGTTTTCCCGGTAATCCGTATTTGTG (site GTGGAGACTCA) | 0.959 |
| GTGGAGGCATGGACCGGTTTTCCCGGTAATCCGTATTTGTG (site GTGGAGCCTCA) | 0.0109 |
| GTGGAGGCATGGACCGGTTTTCCCGGTAATCCGTATTTGTG (site GTGGAGGCTAA) | 0.431 |
| GTGGAGGCATGGACCGGTTTTCCCGGTAATCCGTATTTGTG (site GTGGAGGCTCA) | 1.41 |
| GTGGAGGCATGGACCGGTTTTCCCGGTAATCCGTATTTGTG (site GTGGAGGCTCC) | 0.284 |
| GTGGAGGCATGGACCGGTTTTCCCGGTAATCCGTATTTGTG (site GTGGAGGCTCG) | 1.53 |
| GTGGAGGCATGGACCGGTTTTCCCGGTAATCCGTATTTGTG (site GTGGAGGCTCT) | 1.15 |
| GTGGAGGCATGGACCGGTTTTCCCGGTAATCCGTATTTGTG (site GTGGAGGCTGA) | 0.461 |
| GTGGAGGCATGGACCGGTTTTCCCGGTAATCCGTATTTGTG (site GTGGAGGCTTA) | 1.42 |
| GTGGAGGCATGGACCGGTTTTCCCGGTAATCCGTATTTGTG (site GTGGAGTCTCA) | 1.82 |
| GTGGAGGCATGGACCGGTTTTCCCGGTAATCCGTATTTGTG (site GTGGATGCTCA) | 1.27 |
| GTGGAGGCATGGACCGGTTTTCCCGGTAATCCGTATTTGTG (site GTGGCGGCTCA) | 0.00613 |
| GTGGAGGCATGGACCGGTTTTCCCGGTAATCCGTATTTGTG (site GTGGGGGCTCA) | 0.918 |
| GTGGAGGCATGGACCGGTTTTCCCGGTAATCCGTATTTGTG (site GTGGTGGCTCA) | 0 |
| GTGGAGGCATGGACCGGTTTTCCCGGTAATCCGTATTTGTG (site GTGTAGGCTCA) | 1.06 |
| GTGGAGGCATGGACCGGTTTTCCCGGTAATCCGTATTTGTG (site GTTGAGGCTCA) | 0.792 |
| GTGGAGGCATGGACCGGTTTTCCCGGTAATCCGTATTTGTG (site TTGGAGGCTCA) | 0.821 |
| GTGGATGCATGGACCGGTTTTCCCGGTAATCCGTATTTGTG (site GTGGAAGCTCA) | 1.82 |
| GTGGATGCATGGACCGGTTTTCCCGGTAATCCGTATTTGTG (site GTGGACGCTCA) | 0.837 |
| GTGGATGCATGGACCGGTTTTCCCGGTAATCCGTATTTGTG (site GTGGAGGCTCA) | 0.696 |
| GTGGATGCATGGACCGGTTTTCCCGGTAATCCGTATTTGTG (site GTGGATGCTCA) | 1.67 |
